Data on one substance can be found in patent US8034314B2, “Photoreactive compound specifically binding to calcium binding proteins” (priority 2004, dated 2011).

Series [1] has as its system Ca2+-dependent mitochondrial swelling (PTP opening). The series can be described thus: Ca2+-dependent mitochondrial swelling (PTP opening). Format: biochemical, rat. The settings on record: AzRu 20 μM; PTP opening was completely inhibited at this concentration. As for the experimental part:
(§1) Sarcoplasmic reticulum (SR) membranes were prepared from rabbit fast twitch skeletal muscle as described by Saito [Saito et al.: J. Cell Biol. 99 (1984) 875-85]. Mitochondria were isolated from rat liver as described by us previously [Gincel D. et al.: Biochem J. 358 (2001) 147-55]. VDAC was purified by a method developed in our laboratory, using columns of hydroxyapatite and reactive red agarose [Gincel D. et al.: J. Bioenerget. Biomembr. 32 (2000) 571-83].

In series [2] the test system is U-937 human monocytic cell line. The experiment in a line: STS-induced apoptotic cell death of U-937 cells (acridine orange/ethidium bromide staining). It counts as cell-based. The settings on record: for Reduction of STS-activated apoptotic cell death: AzRu 10 μM added 18 h before STS 1.25 μM. On the procedure:
The U-937 human monocytic cell line was grown under an atmosphere of 95% air and 5% CO2 in RPMI 1640 supplemented with 10% fetal calf serum (FCS), 1 mM L-glutamine, 100 U/ml penicillin, and 100 μg/ml streptomycin. Cells were plated at a density of 5.4×10^4 cells/cm^2 in 24-well plates and then incubated with or without AzRu for 18 hr before exposure to 1.25 μM staurosporine (STS) to induce apoptosis. Cell viability was analyzed 5 and 7 hrs after STS addition by staining with 100 μg/ml acridine orange (AcOr) and 100 μg/ml ethidium bromide (EtBr) in PBS. The cells were then visualized by fluorescence microscopy (Olympus IX51) and images were recorded on an Olympus DP70 camera, using an SWB filter.
AzRu had no effect on the viability of the cells that were not exposed to STS. In FIG. 13 A, U-937 cells were incubated without (a, c) or with AzRu (10 μM) (b,d) for 18 hrs and thereafter were exposed to STS (1.25 μM) (c and d). After five hours the cells were stained with acridine orange and ethidium bromide. Arrows indicate cells in early apoptotic state, represented as degraded nucleus, but with intact cell membrane (stained by acridine orange). Arrowheads indicate a late apoptotic state, as shown by the presence of a degraded nucleus (stained by both acridine orange and ethidium bromide). Scale bar, 20 μm. In FIG. 13 B, quantitative analysis of apoptotic cell death in control cells and cells exposed to AzRu was assessed 5 and 7 hr after their exposure to STS (1.25 by ANOVA and t-test. P<0.001 was considered statistically significant (***). Data are the means±SEM, n=3. In each independent experiment, approximately 200 cells were counted for each treatment.

Another series deals with K+ channel (KCKN0) (Drosophila melanogaster, UniProt Q94526). The experiment in a line: K+ channel (KCKN0) activity. Format: biochemical. The settings on record: AzRu 20 μM; mean ± SEM.
Sequence of K+ channel (KCKN0) (Q94526 whole entry): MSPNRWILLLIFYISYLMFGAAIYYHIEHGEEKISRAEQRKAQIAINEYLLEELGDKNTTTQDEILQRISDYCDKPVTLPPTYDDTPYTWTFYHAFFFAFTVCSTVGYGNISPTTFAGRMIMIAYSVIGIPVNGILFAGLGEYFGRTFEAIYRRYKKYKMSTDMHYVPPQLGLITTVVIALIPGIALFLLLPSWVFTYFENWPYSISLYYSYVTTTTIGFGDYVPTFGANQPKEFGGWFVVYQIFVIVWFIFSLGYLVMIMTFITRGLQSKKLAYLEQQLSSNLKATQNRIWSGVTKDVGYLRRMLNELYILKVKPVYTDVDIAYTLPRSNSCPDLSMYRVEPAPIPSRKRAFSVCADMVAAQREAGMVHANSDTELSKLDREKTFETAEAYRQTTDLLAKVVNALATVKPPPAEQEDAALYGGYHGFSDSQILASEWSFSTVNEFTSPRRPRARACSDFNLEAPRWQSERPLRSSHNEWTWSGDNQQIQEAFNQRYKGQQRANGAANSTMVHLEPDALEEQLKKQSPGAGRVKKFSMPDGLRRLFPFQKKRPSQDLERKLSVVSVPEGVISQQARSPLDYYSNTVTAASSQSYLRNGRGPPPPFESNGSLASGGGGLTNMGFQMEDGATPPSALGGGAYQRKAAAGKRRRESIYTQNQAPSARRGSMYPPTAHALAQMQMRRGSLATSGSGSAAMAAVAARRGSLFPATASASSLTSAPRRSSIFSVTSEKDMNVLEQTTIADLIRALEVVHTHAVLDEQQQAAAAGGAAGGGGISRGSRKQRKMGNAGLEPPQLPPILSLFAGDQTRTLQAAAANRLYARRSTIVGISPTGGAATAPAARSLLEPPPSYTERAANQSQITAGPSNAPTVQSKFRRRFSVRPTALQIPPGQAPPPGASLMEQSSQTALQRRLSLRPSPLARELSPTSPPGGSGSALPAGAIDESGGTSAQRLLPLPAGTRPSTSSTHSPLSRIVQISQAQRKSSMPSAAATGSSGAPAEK
The target in another series is T1, Aldolase (Oryctolagus cuniculus, UniProt P00883).
T1 construct: purchased Sigma
T1 sequence (P00883 2-364 limits assumed): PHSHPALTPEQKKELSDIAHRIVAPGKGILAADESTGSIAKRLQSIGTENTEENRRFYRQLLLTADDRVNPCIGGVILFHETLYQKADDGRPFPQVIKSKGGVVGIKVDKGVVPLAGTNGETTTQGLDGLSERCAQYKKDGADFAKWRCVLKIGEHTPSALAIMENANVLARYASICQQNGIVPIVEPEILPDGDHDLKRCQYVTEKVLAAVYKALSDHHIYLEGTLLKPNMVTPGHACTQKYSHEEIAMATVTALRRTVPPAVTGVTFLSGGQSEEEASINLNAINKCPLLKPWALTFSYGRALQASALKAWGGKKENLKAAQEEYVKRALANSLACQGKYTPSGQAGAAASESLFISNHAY
The series can be described thus: Aldolase activity. It counts as biochemical. Conditions: AzRu 100 μM; mean ± SEM. An excerpt: (§2) Unlabelled ryanodine was obtained from Calbiochem. […] Ruthenium chloride was purchased from Aldrich.

The target in another series is Lysozyme (Gallus gallus, UniProt P00698). The series can be described thus: Lysozyme activity. Format: biochemical. The settings on record: AzRu 100 μM; mean ± SEM.
Sequence of Lysozyme (P00698 19-147): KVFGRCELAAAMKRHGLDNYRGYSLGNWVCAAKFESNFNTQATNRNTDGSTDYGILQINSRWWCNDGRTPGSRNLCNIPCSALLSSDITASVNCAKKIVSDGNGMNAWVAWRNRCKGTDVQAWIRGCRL
Another series relates to Ca2+-dependent proteins. The series can be described thus: Activities of Ca2+-dependent proteins (summary of Table 1). Format: biochemical. Conditions: at ≦20 μM.
The subject of another series is (Na+/K+)ATPase. The series can be described thus: (Na+/K+)ATPase activity. Format: biochemical. The settings on record: mean ± SEM.
The subject of series [3] is Mg2+-dependent proteins and the Zn2+-sensitive KCNK0 channel. The experiment in a line: Activities of Mg2+-dependent proteins and Zn2+-sensitive KCNK0 channel (summary of Table 1). It counts as biochemical. Conditions: at 100 μM.
Series [4] concerns glucose 6-phosphate dehydrogenase. The experiment in a line: G-6-P dehydrogenase activity. Format: biochemical. Conditions: AzRu 100 μM; mean ± SEM.
Text: as §2

The test system of series [5] is glyceraldehyde 3-phosphate dehydrogenase. The series can be described thus: GAP dehydrogenase activity. Conditions: AzRu 100 μM; mean ± SEM. It counts as biochemical.
Text: as §2

A further series addresses Brain hexokinase (Homo sapiens, UniProt P19367). The experiment in a line: Brain hexokinase activity. It counts as biochemical. The settings on record: mean ± SEM.
In series [6] the target is T2, Ca2+-pump (SERCA) of skeletal muscle sarcoplasmic reticulum (Oryctolagus cuniculus, UniProt P04191).
T2 construct: Sarcoplasmic reticulum (SR) membranes were prepared from rabbit fast twitch skeletal muscle; from tissue; host or cells: rabbit fast twitch skeletal muscle SR membranes
T2 sequence (P04191 1-994 isoform P04191-2): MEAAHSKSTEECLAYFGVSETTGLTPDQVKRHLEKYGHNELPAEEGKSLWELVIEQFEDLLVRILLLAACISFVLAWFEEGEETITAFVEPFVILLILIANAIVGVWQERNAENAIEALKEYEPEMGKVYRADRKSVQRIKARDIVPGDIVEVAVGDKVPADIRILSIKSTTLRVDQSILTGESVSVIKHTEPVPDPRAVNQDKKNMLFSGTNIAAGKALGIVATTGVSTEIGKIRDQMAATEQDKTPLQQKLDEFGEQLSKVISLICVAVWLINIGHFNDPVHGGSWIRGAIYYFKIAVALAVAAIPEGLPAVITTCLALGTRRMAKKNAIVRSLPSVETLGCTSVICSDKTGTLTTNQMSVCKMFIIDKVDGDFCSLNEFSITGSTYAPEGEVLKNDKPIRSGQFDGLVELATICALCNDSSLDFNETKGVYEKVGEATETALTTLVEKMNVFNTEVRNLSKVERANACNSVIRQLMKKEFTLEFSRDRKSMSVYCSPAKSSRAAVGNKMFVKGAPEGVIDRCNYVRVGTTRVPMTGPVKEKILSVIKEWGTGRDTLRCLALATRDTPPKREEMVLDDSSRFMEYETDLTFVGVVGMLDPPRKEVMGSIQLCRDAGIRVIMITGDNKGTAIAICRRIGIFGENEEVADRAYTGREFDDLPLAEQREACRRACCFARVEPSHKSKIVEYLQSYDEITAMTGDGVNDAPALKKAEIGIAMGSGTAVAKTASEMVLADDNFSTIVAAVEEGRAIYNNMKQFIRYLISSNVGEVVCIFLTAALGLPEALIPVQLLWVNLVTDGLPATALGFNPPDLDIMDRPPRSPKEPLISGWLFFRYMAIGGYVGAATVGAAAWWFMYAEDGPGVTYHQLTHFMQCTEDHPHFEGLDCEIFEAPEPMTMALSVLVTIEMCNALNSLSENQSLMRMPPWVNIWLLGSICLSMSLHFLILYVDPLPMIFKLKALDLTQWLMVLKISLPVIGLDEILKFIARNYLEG
The series can be described thus: Ca2+ uptake/accumulation in SR membranes (Ca2+-pump activity). Format: biochemical, rabbit. As for the experimental part:
as §1
Ca^2+-accumulation in freshly prepared mitochondria (0.5 mg/ml) was assayed for 1 to 20 minutes at 30° C. in the presence of 225 mM mannitol, 75 mM sucrose, 120 μM CaCl2 (containing 3×10^4 cpm/nmol ^45Ca^2+), 5 mM HEPES/KOH pH 7.0, and 5 mM succinate with 0.1 mM Pi, or 4 mM MgCl2 with 3 mM ATP. The Ca^2+-uptake was terminated by rapid Millipore filtration, followed by a wash with 5 ml of 0.15 M KCl. The Ca^2+-accumulation in SR was determined as described previously [Shoshan-Barmatz V. & Shaineberg A.: Biochim. Biophys. Acta 1065 (1991) 82-8]. Electron transport from succinate to cytochrome c was described in above cited article [Gincel D. et al.: J. Bioenerget. Biomembr. 32 (2000) 571-83].
The preparation of SR membranes from skeletal muscle, and the measurement of Ca^2+-accumulation were carried out as described above.
The hexavalent RuR and the trivalent Ru360 have been employed in various studies as inhibitors of Ca^2+-dependent reactions. As shown here, even with no photoactivation, AzRu, in contrast to RuR and Ru360, was effective in inhibiting the SR Ca^2+-pump (Table 3). […] This may open the way to inhibit other Ca^2+-dependent activities that are not sensitive to RuR, such as the plasma membrane Ca^2+-ATPase. […] RuR was employed to improve mitochondrial production in ischemic reperfused pig myocardium, was employed in the nervous system to follow neuronal death progress and can act as an anti-oxidant in certain conditions. Considering the potent activity of AzRu in RuR-insensitive reactions (see Table 3), its applications in various biological studies should be explored. Ca^2+ accumulation in SR and mitochondria was assayed as described above in the absence and presence of different concentrations of RuR (0.05-100 μM), Ru360 (0.01-100 μM) or AzRu (0.1-100 μM). The concentration required for 50% inhibition (IC50) was derived from the plot of Ca^2+ accumulation activity or ryanodine binding as a function of the reagent concentration. The results are the mean±SEM of 3 to 5 experiments (Table 3).

Sequence of Brain hexokinase (P19367 whole entry): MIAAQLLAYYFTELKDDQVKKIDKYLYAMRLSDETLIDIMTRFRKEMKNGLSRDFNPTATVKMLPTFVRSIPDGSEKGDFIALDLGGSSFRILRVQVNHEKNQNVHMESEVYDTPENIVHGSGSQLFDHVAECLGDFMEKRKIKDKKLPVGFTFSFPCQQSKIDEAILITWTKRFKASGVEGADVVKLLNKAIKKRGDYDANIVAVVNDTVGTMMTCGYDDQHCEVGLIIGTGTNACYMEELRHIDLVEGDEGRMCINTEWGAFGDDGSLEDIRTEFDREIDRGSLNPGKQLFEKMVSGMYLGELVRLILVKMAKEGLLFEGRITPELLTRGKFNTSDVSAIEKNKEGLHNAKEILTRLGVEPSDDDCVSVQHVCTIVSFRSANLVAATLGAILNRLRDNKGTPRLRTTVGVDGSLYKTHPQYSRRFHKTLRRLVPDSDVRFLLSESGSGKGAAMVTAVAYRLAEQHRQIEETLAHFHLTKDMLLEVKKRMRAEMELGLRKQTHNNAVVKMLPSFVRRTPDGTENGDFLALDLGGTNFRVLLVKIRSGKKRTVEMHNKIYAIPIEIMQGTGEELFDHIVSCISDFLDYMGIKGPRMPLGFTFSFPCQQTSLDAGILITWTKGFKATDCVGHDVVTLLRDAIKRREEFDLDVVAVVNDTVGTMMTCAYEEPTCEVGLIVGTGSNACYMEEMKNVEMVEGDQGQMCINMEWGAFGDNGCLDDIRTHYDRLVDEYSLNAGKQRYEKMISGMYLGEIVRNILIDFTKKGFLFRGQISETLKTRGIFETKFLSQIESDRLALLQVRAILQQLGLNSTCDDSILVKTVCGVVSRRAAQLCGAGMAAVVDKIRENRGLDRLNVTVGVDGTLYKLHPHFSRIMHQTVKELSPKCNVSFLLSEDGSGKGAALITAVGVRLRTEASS

What is called IC50 is the point on the concentration scale where inhibition reaches its midpoint. Lower therefore signals inhibition by little substance. In the case of azido-ruthenium [AzRu], the “Activity (% of control), Ca2+-dependent mitochondrial swelling” value in series [1] was 0 % of control. Also, the “Reduction of STS-activated apoptotic cell death” value is given as “about 75%” in series [2] (5 h of exposure to STS) and approximately 47% in series [2] (7 h of exposure to STS). The “Effect on viability of cells not exposed to STS” value in series [2] (U-937 cells, no STS) was “no effect”. On K+ channel (KCKN0), the “Activity (% of control), K+ channel (KCKN0)” value is listed as 100 ± 0.3 % of control. Besides, on Aldolase, the “Activity (% of control), Aldolase” value is given as 78 ± 7 % of control. The “Activity (% of control), Lysozyme” value at Lysozyme is 101 ± 3 % of control. In the series on Ca2+-dependent proteins, the “Inhibition of activities of Ca2+-dependent proteins” value is “up to 90%”. The “Activity (% of control), (Na+/K+)ATPase” value with (Na+/K+)ATPase (AzRu 20 μM) is 92 ± 5 % of control; in the series on (Na+/K+)ATPase (AzRu 100 μM), 71 ± 4 % of control. For the same substance, the “Inhibition of activities of Mg2+-dependent proteins and Zn2+-sensitive KCNK0 channel” value in series [3] is approximately 30%. Also, in series [4], the “Activity (% of control), G-6-P dehydrogenase” value is given as 101 ± 7 % of control. Further, the “Activity (% of control), GAP dehydrogenase” value in series [5] is listed as 102 ± 5 % of control. In addition, the “Activity (% of control), Brain hexokinase” value at Brain hexokinase (AzRu 20 μM) is 73 ± 7 % of control; on Brain hexokinase (AzRu 100 μM), 61 ± 3 % of control. For the same substance, the IC50 is 1010 ± 95 nM in [6] (+UV (photoactivation), mean ± SEM) and 4910 ± 55 nM in series [6] (no photoactivation, mean ± SEM of 3 to 5 experiments). In [6] (AzRu 20 μM, mean ± SEM of 3 to 6 experiments), the “Activity (% of control), Ca2+ uptake in SR (SERCA)” value is listed as 13 ± 6 % of control. In addition, the “Change of sensitivity of the Ca2+-pump activity to the reagent by photoactivation” value in series [6] (UV irradiation, SR membranes) was “increased more than two-fold”.
